Assay results as given in patent publication US20200354426A1 (MEDIMMUNE LIMITED, priority 2016, published 2020).
pEC50: −log10 of the molar value. Numbered stars: 1 amine (or outer) side, 2 acyl side, 3 side chain; on linkers, the order of the positions; unused ones are H or OH. Side chains are listed from the residue outwards. Peptide text beside a SMILES is read from it. * marks the point of attachment. γGlu = O=C(O)[C@H](CCC(=O)[*:2])N[*:1]; Palmitoyl = CCCCCCCCCCCCCCCC(=O)*; Ahx = NCCCCCC(=O)O; βAla = NCCC(=O)O

Tests used:
Assay in all cases: cAMP activity assay in assay medium (assay 1)
Type in all cases: cell-based
Human GlucR = molecular target: T1, Human GlucR (Homo sapiens, UniProt P47871); conditions: assay medium; Table 4; read-out: hGlucR EC50
T1 construct: expressed in transfected cells
Text: (§1) Biological Activity of Peptides in Cell-Based cAMP Activity Assay (Assay 1):
(§2) All sample dilutions were made in duplicate.

Human GIPr = molecular target: T2, Human GIPr (Homo sapiens, UniProt P48546); conditions: assay medium; Table 4; read-out: hGIPR EC50
T2 construct: expressed in transfected cells
T2 sequence (P48546 22-466): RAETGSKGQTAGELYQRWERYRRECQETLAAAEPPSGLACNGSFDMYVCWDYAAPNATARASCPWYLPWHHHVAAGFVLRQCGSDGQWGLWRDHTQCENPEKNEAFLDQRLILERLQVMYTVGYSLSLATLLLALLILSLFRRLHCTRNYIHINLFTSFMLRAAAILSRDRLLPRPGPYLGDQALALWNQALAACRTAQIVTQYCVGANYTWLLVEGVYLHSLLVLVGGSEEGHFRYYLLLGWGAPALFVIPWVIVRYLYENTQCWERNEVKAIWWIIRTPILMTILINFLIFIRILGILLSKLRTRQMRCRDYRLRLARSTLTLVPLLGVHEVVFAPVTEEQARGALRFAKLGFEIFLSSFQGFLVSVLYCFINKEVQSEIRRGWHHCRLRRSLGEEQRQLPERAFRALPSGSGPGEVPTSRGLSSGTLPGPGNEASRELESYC
Text: as §1, §2

Human GLP1R = Human GLP1R (Homo sapiens, UniProt P43220); set-up: expressed in transfected cells; conditions: assay medium; Table 4; read-out: hGLP1R EC50
Text: as §1, §2

T1 sequence (P47871 26-477): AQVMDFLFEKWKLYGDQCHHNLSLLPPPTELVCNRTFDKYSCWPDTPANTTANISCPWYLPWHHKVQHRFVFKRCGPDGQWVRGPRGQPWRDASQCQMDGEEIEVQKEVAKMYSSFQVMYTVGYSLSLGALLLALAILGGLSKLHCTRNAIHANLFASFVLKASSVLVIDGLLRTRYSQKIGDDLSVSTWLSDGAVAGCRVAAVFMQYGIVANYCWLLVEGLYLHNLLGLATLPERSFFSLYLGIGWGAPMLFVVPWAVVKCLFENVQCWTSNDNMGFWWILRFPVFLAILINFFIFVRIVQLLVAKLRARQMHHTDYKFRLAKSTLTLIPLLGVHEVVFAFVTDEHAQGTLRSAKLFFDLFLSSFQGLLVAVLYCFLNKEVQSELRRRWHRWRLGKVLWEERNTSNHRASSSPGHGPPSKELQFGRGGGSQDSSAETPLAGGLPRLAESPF
Sequence of Human GLP1R (P43220 24-463): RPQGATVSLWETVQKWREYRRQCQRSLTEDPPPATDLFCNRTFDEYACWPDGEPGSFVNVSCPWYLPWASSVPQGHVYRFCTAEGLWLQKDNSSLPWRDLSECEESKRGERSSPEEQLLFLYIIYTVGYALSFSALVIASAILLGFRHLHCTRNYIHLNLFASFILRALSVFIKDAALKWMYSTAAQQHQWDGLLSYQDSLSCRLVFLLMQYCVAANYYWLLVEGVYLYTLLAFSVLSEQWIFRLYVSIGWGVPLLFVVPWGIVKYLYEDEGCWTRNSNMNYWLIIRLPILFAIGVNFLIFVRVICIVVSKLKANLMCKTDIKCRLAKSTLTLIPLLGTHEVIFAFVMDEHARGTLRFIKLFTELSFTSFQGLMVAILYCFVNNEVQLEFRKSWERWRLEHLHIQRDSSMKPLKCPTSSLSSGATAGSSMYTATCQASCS

CCCCCCCCCCCCCCCC(=O)N[C@@H](CCC(=O)NCCCC[C@H](NC(=O)[C@H](Cc1ccc(O)cc1)NC(=O)[C@H](CCC(=O)O)NC(=O)[C@H](CO)NC(=O)[C@H](Cc1ccc(O)cc1)NC(=O)[C@H](CC(=O)O)NC(=O)[C@H](CO)NC(=O)[C@@H](NC(=O)[C@H](Cc1ccccc1)NC(=O)[C@@H](NC(=O)CNC(=O)[C@H](CCC(N)=O)NC(=O)[C@H](CO)NC(=O)[C@@H](N)Cc1c[nH]cn1)[C@@H](C)O)[C@@H](C)O)C(=O)N[C@@H](CC(=O)O)C(=O)N[C@@H](CO)C(=O)N[C@@H](CCCNC(=N)N)C(=O)N[C@@H](CCCNC(=N)N)C(=O)N[C@@H](C)C(=O)N[C@@H](CCC(N)=O)C(=O)N[C@@H](CC(=O)O)C(=O)N[C@@H](Cc1ccccc1)C(=O)N[C@H](C(=O)N[C@@H](CCC(N)=O)C(=O)N[C@@H](Cc1c[nH]c2ccccc12)C(=O)N[C@@H](CC(C)C)C(=O)N[C@H](C(=O)N[C@@H](C)C(=O)NCC(=O)NCC(N)=O)C(C)C)C(C)C)C(=O)O [g731] (H-HSQGTFTSDYSEYK([γGlu-Palmitoyl])DSRRAQDFVQWLVAGG-NH2; N-terminus assumed)
pEC50 (Human GlucR): 10.56
pEC50 (Human GIPr): 7.39
pEC50 (Human GLP1R): 10.37

CCCCCCCCCCCCCCCC(=O)NCCCCCC(=O)NCCCC[C@H](NC(=O)[C@H](CCC(N)=O)NC(=O)[C@H](C)NC(=O)[C@H](C)NC(=O)[C@H](CCCNC(=N)N)NC(=O)[C@H](CO)NC(=O)[C@H](CC(=O)O)NC(=O)[C@H](CC(C)C)NC(=O)[C@H](Cc1ccc(O)cc1)NC(=O)[C@H](CCCCN)NC(=O)[C@H](CO)NC(=O)[C@H](Cc1ccc(O)cc1)NC(=O)[C@H](CC(=O)O)NC(=O)[C@H](CO)NC(=O)[C@@H](NC(=O)[C@H](Cc1ccccc1)NC(=O)[C@@H](NC(=O)CNC(=O)[C@H](CCC(N)=O)NC(=O)[C@H](CO)NC(=O)[C@@H](N)Cc1c[nH]cn1)[C@@H](C)O)[C@@H](C)O)C(=O)N[C@@H](Cc1ccccc1)C(=O)N[C@H](C(=O)N[C@@H](CCC(N)=O)C(=O)N[C@@H](Cc1c[nH]c2ccccc12)C(=O)N[C@@H](CC(C)C)C(=O)N[C@@H](CCC(=O)O)C(=O)N[C@@H](CCCNC(=N)N)C(=O)NCC(=O)NCC(N)=O)C(C)C [g806] (H-HSQGTFTSDYSKYLDSRAAQK([Ahx-Palmitoyl])FVQWLERGG-NH2; N-terminus assumed)
pEC50 (Human GlucR): 11.00
pEC50 (Human GIPr): 6.98
pEC50 (Human GLP1R): 9.77

CCCCCCCCCCCCCCCC(=O)NCCC(=O)NCCCC[C@H](NC(=O)[C@H](CO)NC(=O)[C@H](CC(=O)O)NC(=O)[C@H](CC(C)C)NC(=O)[C@H](Cc1ccc(O)cc1)NC(=O)[C@H](CCC(=O)O)NC(=O)[C@H](CO)NC(=O)[C@H](Cc1ccc(O)cc1)NC(=O)[C@H](CC(=O)O)NC(=O)[C@H](CO)NC(=O)[C@@H](NC(=O)[C@H](Cc1ccccc1)NC(=O)[C@@H](NC(=O)CNC(=O)[C@H](CCC(=O)O)NC(=O)[C@H](CO)NC(=O)[C@@H](N)Cc1c[nH]cn1)[C@@H](C)O)[C@@H](C)O)C(=O)N[C@@H](CCCNC(=N)N)C(=O)N[C@@H](C)C(=O)N[C@@H](CCCNC(=N)N)C(=O)N[C@@H](CC(=O)O)C(=O)N[C@@H](Cc1ccccc1)C(=O)N[C@H](C(=O)N[C@@H](C)C(=O)N[C@@H](Cc1c[nH]c2ccccc12)C(=O)N[C@@H](CC(C)C)C(=O)N[C@@H](CCC(=O)O)C(=O)N[C@@H](C)C(=O)NCC(=O)NCC(N)=O)C(C)C [g734] (H-HSEGTFTSDYSEYLDSK([βAla-Palmitoyl])RARDFVAWLEAGG-NH2; N-terminus assumed)
pEC50 (Human GlucR): 7.08
pEC50 (Human GIPr): 5.93
pEC50 (Human GLP1R): 10.16

CCCCCCCCCCCCCCCC(=O)N[C@@H](CCC(=O)NCCCC[C@H](NC(=O)[C@H](Cc1ccc(O)cc1)NC(=O)[C@H](CCCCN)NC(=O)[C@H](CO)NC(=O)[C@H](Cc1ccc(O)cc1)NC(=O)[C@H](CC(=O)O)NC(=O)[C@H](CO)NC(=O)[C@@H](NC(=O)[C@H](Cc1ccccc1)NC(=O)[C@@H](NC(=O)CNC(=O)[C@H](CCC(N)=O)NC(=O)[C@H](CO)NC(=O)[C@@H](N)Cc1c[nH]cn1)[C@@H](C)O)[C@@H](C)O)C(=O)N[C@@H](CC(=O)O)C(=O)N[C@@H](CO)C(=O)N[C@@H](CCCNC(=N)N)C(=O)N[C@@H](C)C(=O)N[C@@H](C)C(=O)N[C@@H](CCC(N)=O)C(=O)N[C@@H](CC(=O)O)C(=O)N[C@@H](Cc1ccccc1)C(=O)N[C@H](C(=O)N[C@@H](CCC(N)=O)C(=O)N[C@@H](Cc1c[nH]c2ccccc12)C(=O)N[C@@H](CC(C)C)C(=O)N[C@@H](CCC(=O)O)C(=O)N[C@@H](C)C(=O)NCC(=O)NCC(N)=O)C(C)C)C(=O)O [g817] (H-HSQGTFTSDYSKYK([γGlu-Palmitoyl])DSRAAQDFVQWLEAGG-NH2; N-terminus assumed)
pEC50 (Human GlucR): 11.77
pEC50 (Human GIPr): 7.82
pEC50 (Human GLP1R): 10.60

CCCCCCCCCCCCCCCC(=O)NCCC(=O)NCCCC[C@H](NC(=O)[C@H](CO)NC(=O)[C@H](CC(=O)O)NC(=O)[C@H](CC(C)C)NC(=O)[C@H](Cc1ccc(O)cc1)NC(=O)[C@H](CCC(=O)O)NC(=O)[C@H](CO)NC(=O)[C@H](Cc1ccc(O)cc1)NC(=O)[C@H](CC(=O)O)NC(=O)[C@H](CO)NC(=O)[C@@H](NC(=O)[C@H](Cc1ccccc1)NC(=O)[C@@H](NC(=O)CNC(=O)[C@H](CCC(N)=O)NC(=O)[C@H](CO)NC(=O)[C@@H](N)Cc1c[nH]cn1)[C@@H](C)O)[C@@H](C)O)C(=O)N[C@@H](CCCNC(=N)N)C(=O)N[C@@H](C)C(=O)N[C@@H](CCCNC(=N)N)C(=O)N[C@@H](CC(=O)O)C(=O)N[C@@H](Cc1ccccc1)C(=O)N[C@H](C(=O)N[C@@H](C)C(=O)N[C@@H](Cc1c[nH]c2ccccc12)C(=O)N[C@@H](CC(C)C)C(=O)N[C@@H](CCC(=O)O)C(=O)N[C@@H](CCCNC(=N)N)C(=O)NCC(=O)NCC(N)=O)C(C)C [g795] (H-HSQGTFTSDYSEYLDSK([βAla-Palmitoyl])RARDFVAWLERGG-NH2; N-terminus assumed)
pEC50 (Human GlucR): 9.96
pEC50 (Human GIPr): 6.24
pEC50 (Human GLP1R): 10.13

CCCCCCCCCCCCCCCC(=O)N[C@@H](CCC(=O)NCCCC[C@H](NC(=O)[C@H](CO)NC(=O)[C@H](CC(=O)O)NC(=O)[C@H](CC(C)C)NC(=O)[C@H](Cc1ccc(O)cc1)NC(=O)[C@H](CCCNC(=N)N)NC(=O)[C@H](CO)NC(=O)[C@H](Cc1ccc(O)cc1)NC(=O)[C@H](CC(=O)O)NC(=O)[C@H](CO)NC(=O)[C@@H](NC(=O)[C@H](Cc1ccccc1)NC(=O)[C@@H](NC(=O)CNC(=O)[C@H](CCC(N)=O)NC(=O)[C@H](CO)NC(=O)[C@@H](N)Cc1c[nH]cn1)[C@@H](C)O)[C@@H](C)O)C(=O)N[C@@H](CCCNC(=N)N)C(=O)N[C@@H](C)C(=O)N[C@@H](CCCNC(=N)N)C(=O)N[C@@H](CC(=O)O)C(=O)N[C@@H](Cc1ccccc1)C(=O)N[C@H](C(=O)N[C@@H](CCC(=O)O)C(=O)N[C@@H](Cc1c[nH]c2ccccc12)C(=O)N[C@@H](CC(C)C)C(=O)N[C@H](C(=O)N[C@@H](C)C(=O)NCC(=O)NCC(N)=O)C(C)C)C(C)C)C(=O)O [g823] (H-HSQGTFTSDYSRYLDSK([γGlu-Palmitoyl])RARDFVEWLVAGG-NH2; N-terminus assumed)
pEC50 (Human GlucR): 11.02
pEC50 (Human GIPr): 7.07
pEC50 (Human GLP1R): 10.01
